Measurements from patent US10799456B2, “Multiple drug lipid nanoparticle composition and related methods for extended drug levels in blood and lymph tissue” (priority 2015, dated 2020).

Legend:
[1] = reported values; cited from earlier work
[2] = % Drug association to particles by assembly method; type: physicochemical
Description: Select one or two drugs hydrophilic and water soluble (Class 2) drugs listed in Table 19 (for example, tenofovir and/or emtricitabine and/or lamivudine). • 3. Select the excipient combination (for example, 9 parts DSPC and 1 part PEG-DSPE). • 4. Prepare a single-phase miscible solvent that enables full solubilization of the chosen water-insoluble Class 1 drugs and water soluble Class 2 drugs plus the excipients from step 3. Examples include CHCl3:Methanol:Water (65:35:4); CHCl3:Ethanol:Water (65:35:4); CHCl3:Propanol:Water (65:35:4); and CHCl3:Hexanol:Water (65:35:4). • 5. The components in Steps 1, 2 and 3 are solubilized with the miscible solvent in step 4. • 6. The drugs (steps 1 and 2) as well as excipients (step 3) and the miscible solvent (step 4) are dried under reduced pressure with assistance of a combination of heat, reduced pressure and/or aerosolization to provide for uniformity and efficiency of drying. • 7. The dehydrated composition is heated above gel-to-liquid phase transition temperature of the excipient mixture (e.g., 50° C.). • 8. A buffered saline solution is prepared and the temperature is equilibrated to the same temperature as dehydrated composition. • 9. The buffered saline solution and dehydrated composition are gradually combined and maintained at the defined (e.g., 50° C.) for 3 hr. • 10. The resulting hydrated multi-drug lipid nanoparticles are size-reduced by sheering or forcing through small orifice or pressurized filter apparatus while maintaining at the defined temperature (in liquid phase of lipidic excipients).

[3] = cited from earlier work; for LogP: Tables 18 and 19; for Hydrophobicity (Log P): Tables 20 and 21
[4] = cited from earlier work
[5] = Plasma drug exposure of three multi-drug lipid formulations vs free drug in primates; conditions: monkey, in vivo, sc, AUC Lipid Drug 0-168 h, LPV/EFV/TFV combination
[6] = Drug incorporation/encapsulation (association) efficiency of multi-drug LNPs by dialysis; type: physicochemical
Method: The anti-HIV LNP formulations contain both unbound drug and drugs bound to lipid nanoparticles. […] Drugs were quantified by LC-MS/MS using acetonitrile precipitation. Encapsulation efficiency (EE) was calculated as follows: […]

[7] = Drug incorporation efficiency into lipid-drug nanoparticles (dialysis); type: physicochemical; conditions: for Incorporation efficiency (%) / Drug incorporation (% total): preclinical 45 mL scale
Method: J Acquir Immune Defic Syndr. […] Journal of pharmaceutical sciences. […] The AAPS journal. […] Residual solvent was removed overnight by vacuum desiccation. The dried lipid-drug film was then rehydrated with 0.9% NaCl containing 20 mM sodium bicarbonate (pH 7.4). The lipid-drug samples were allowed to hydrate at 60° C. for 2 h. Then samples were sonicated (laboratory scale) or homogenized (preclinical scale) to achieve a homogenous suspension.
The incorporation efficiency was calculated as the ratio of the amount of incorporated drug over the total amount of drug loaded multiplied by 100%.

[8] = Plasma time course of ATV/RTV/TFV lipid nanoparticles in primates; type: in vivo, Macaca nemestrina; conditions: male, Macaca nemestrina, in vivo, sc
Method: All animal procedures were performed under an approved protocol reviewed by the University of Washington Institutional Animal Care and Use Committee. […] ATV, RTV, and TFV in the plasma were extracted in duplicate and analyzed with a liquid chromatography-mass spectrometry assay with a validated reverse phase HPLC/MS/MS method, similar to that of lopinavir (LPV), RTV, and TFV. […] Antimicrobial agents and chemotherapy. 2014. The linear trapezoidal method was used to calculate the area under the plasma drug concentration-time curve (AUC) for ATV, RTV, and TFV during the time course, which was close to 168 h post-dosing. […] All drugs in buffer and plasma were analyzed using a validated HPLC/MS/MS analytical method, capable of analyzing […], and TFV. The one-step analysis for LPV, RTV, and TFV was published previously. […] Antimicrobial agents and chemotherapy. 2014. Briefly, the HPLC system was outfitted with a Shimadzu 20AD HPLC (Shimadzu Scientific Instruments, Inc., Pleasanton, Calif.). […] Multiple reaction monitoring (MRM) was used to detect transition ions from a specific precursor ion to product ion. The analytes were detected using the following m/z transitions: 705.5/168.2 for ATV, 548.3/392.3 for DRV, 721.3/296.1 for RTV, 288.1/176 for TFV, and 238.1/193.2 for cyheptamide.

[9] = Octanol-buffer distribution coefficient (shake-flask); type: physicochemical; conditions: room temperature
Method: The octanol-buffer drug distribution coefficient at room temperature was determined by a small-scale, shake-flask method described by Dittert L W, et al. Phase Solubility Technique in Studying the Formation of Complex Salts of Triamterene. Journal of pharmaceutical sciences. […] Briefly, phosphate-buffered saline (PBS) at pH 3, 5, and 7.4 was used as the aqueous phase. […] The mixture was centrifuged at 14,000 rpm (18,078 g) (Beckman Coulter™ Microfuge® 18 centrifuge, Beckman Coulter Inc., Brea, Calif.) to separate octanol and the aqueous phase. The drug concentration in the two phases was determined with high-performance liquid chromatography tandem mass spectrometry (HPLC/MS/MS). The distribution coefficient was calculated as the ratio of the drug concentration in the octanol phase to the drug concentration in the aqueous phase. Triplicate samples were used at each pH.

[10] = Particle size by photon correlation spectroscopy; type: physicochemical
Method: The mean particle size of lipid-drug nanoparticles and liposome control was determined by photon correlation spectroscopy (PCS) using a NICOMP™ 380ZLS instrument (NICOMP Particle Sizing Systems, Santa Barbara, Calif.). […] Samples were diluted with the same buffer to an identical final volume to analyze concentration effects. The light scattering data were analyzed based on intensity-weight NICOMP size distribution and expressed as a mean±SD.
Briefly, lipids and protease inhibitors were dissolved in chloroform:ethanol (3:1 v/v) and PMPA was added from a stock solution of 30 mg/ml in aqueous 150 mM NaHCO3. Solvent was removed by rotary evaporation and vacuum desiccation. The dry film was rehydrated to 200 mM lipid in 0.4% NaCl with 20 mM NaHCO3 buffer at 60° C. Particle size was reduced at 60° C. by bath sonication (laboratory scale) or high-pressure homogenization using an Emulsiflex-05 (Avestin, Ottawa, Canada) (clinical scale). LNPs were maintained at 60° C. to anneal for 30 min prior to cooling and stored at 4° C. Particle size was determined by photon correlation spectroscopy using a NICOMP 380 ZLS (Particle Sizing Systems, Santa Barbara, Calif.).

Row | SMILES | % Drug Association to Particles, Liposomes [1] | % Drug Association to Particles, LNPs from mixture of dual solvent method [2] | % Drug Association to Particles, LNPs from single, miscible solvent method [2] | LogP [3] | Water solubility @ 25° C. [4] | Hydrophobicity (Log P) [3] | other results
1 | Nc1ccn([C@@H]2CS[C@H](CO)O2)c(=O)n1 [Lamivudine] | 4-5% | 10-30% | 85% | – | – | – | –
2 | C[C@@H]1CCO[C@H]2Cn3cc(C(=O)NCc4ccc(F)cc4F)c(=O)c(O)c3C(=O)N12 [Dolutegravir] | – | – | – | 2.4 | 95 µg/mL | – | –
3 | Cc1nnc(C(=O)NC(C)(C)c2nc(C(=O)NCc3ccc(F)cc3)c(O)c(=O)n2C)o1 [Raltegravir] | – | 9-25% | 75-89% | −0.39 | 100 µg/mL | – | –
4 | Nc1nc(=O)n([C@@H]2CS[C@H](CO)O2)cc1F [Emtricitabine] | 1-2% | 3-10% | 78-80% | −2.4 | 112000 µg/mL | −1.4 | –
5 | Cc1cc(/C=C/C#N)cc(C)c1Nc1ccnc(Nc2ccc(C#N)cc2)n1 [Rilpivirine] | 14% | 75-76% | 90-100% | – | 0.094 µg/mL | 4.5 | –
6 | CC(C)(C)NC(=O)[C@@H]1CN(Cc2cccnc2)CCN1C[C@@H](O)C[C@@H](Cc1ccccc1)C(=O)N[C@H]1c2ccccc2C[C@H]1O [Indinavir] | – | – | – | 2.3 | – | – | –
7 | O=C1Nc2ccc(Cl)cc2[C@@](C#CC2CC2)(C(F)(F)F)O1 [Efavirenz] | 80% | 76% | 80-90% | 4 | 0.000093 µg/mL | 4 | AUC [5]: 31200 ± 2700 ng·h/mL; % particle-bound ([6]; Combination 3, lipid:LPV:EFV:TFV 200:26.6:20:40, large scale): (78.7) %
8 | COC(=O)N[C@H](C(=O)N[C@@H](Cc1ccccc1)[C@@H](O)CN(Cc1ccc(-c2ccccn2)cc1)NC(=O)[C@@H](NC(=O)OC)C(C)(C)C)C(C)(C)C [Atazanavir (ATV), Atazanavir] | – | 90-100% | 90-100% | – | 0.11 µg/mL | 5.6 | Incorporation efficiency (%) ([7]; LNPs with ATV + RTV + TFV (2:1:3), laboratory 0.2 mL scale): 104.2 ± 3.2%; Incorporation efficiency (%) / Drug incorporation (% total) ([7]; LNPs with ATV + RTV + TFV (2:1:3)): 85.5 ± 8.2%; Incorporation efficiency (%) / Drug incorporation (% total) ([7]; LNPs with ATV + RTV + TFV (2:1:3), listed as atazanavir): 85.5±8.2%; Incorporation efficiency (%) ([7]; LNPs with ATV + RTV, laboratory scale, lipid:drug 8:1): 93.5 ± 6.6%; Incorporation efficiency (%) ([7]; LNPs with ATV, laboratory scale, lipid:drug 8:1): 100.5 ± 8.2%; Incorporation efficiency (%) ([7]; lipid:drug 5:1 mol/mol, DSPC:DSPE-mPEG2000 8:2): 96.5 ± 2.6%; Incorporation efficiency (%) ([7]; lipid:drug 8:1 mol/mol, DSPC:DSPE-mPEG2000 8:2): 96.2 ± 3.8%; Incorporation efficiency (%) ([7]; lipid:drug 20:1 mol/mol, DSPC:DSPE-mPEG2000 8:2): 97.4 ± 1.8%; AUC fraction (% total) 8-168 h [8]: 95.3%; Log D (measured) ([9]; pH 3, octanol/PBS): 3.40 ± 0.31; Log D (measured) ([9]; pH 5, octanol/PBS): 4.66 ± 0.27; Log D (measured) ([9]; pH 7.4, octanol/PBS): 5.77 ± 0.03; Particle size (nm) ([10]; lipid:drug 5:1 mol/mol): 68.2 ± 7.1 nm; Particle size (nm) ([10]; lipid:drug 8:1 mol/mol): 56.3 ± 4.1 nm; Particle size (nm) ([10]; lipid:drug 20:1 mol/mol): 34.6 ± 3.1 nm; % particle-bound ([6]; Combination 2, lipid:ATZ:RTV:TFV 115:10:5:15, large scale): (91.9 ± 6.8) %
